Columns and labels:
BTK enzyme = target: T1, BTK enzyme (Homo sapiens, UniProt Q06187); experiment: In vitro BTK kinase assay: BTK-POLYGAT-LS assay; format: biochemical; details: ATP 10 μM, read-out: IC50 (10uMATP)
T1 construct: purchased Upstate 14-552
How it was run: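 Human BTK activity was measured with final 10 μM ATP and 100 nM polyGAT substrate in pH 7.5 Tris buffer with 10 mM MgCl2, DTT, Triton X-100 and casein.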

[1] = target: BTK (phospho-BTK) in human whole blood (Homo sapiens, UniProt Q06187); experiment: In vitro PD assay in human whole blood (pBTK assay)
BTK (phospho-BTK) in human whole blood, sequence (Q06187 whole entry): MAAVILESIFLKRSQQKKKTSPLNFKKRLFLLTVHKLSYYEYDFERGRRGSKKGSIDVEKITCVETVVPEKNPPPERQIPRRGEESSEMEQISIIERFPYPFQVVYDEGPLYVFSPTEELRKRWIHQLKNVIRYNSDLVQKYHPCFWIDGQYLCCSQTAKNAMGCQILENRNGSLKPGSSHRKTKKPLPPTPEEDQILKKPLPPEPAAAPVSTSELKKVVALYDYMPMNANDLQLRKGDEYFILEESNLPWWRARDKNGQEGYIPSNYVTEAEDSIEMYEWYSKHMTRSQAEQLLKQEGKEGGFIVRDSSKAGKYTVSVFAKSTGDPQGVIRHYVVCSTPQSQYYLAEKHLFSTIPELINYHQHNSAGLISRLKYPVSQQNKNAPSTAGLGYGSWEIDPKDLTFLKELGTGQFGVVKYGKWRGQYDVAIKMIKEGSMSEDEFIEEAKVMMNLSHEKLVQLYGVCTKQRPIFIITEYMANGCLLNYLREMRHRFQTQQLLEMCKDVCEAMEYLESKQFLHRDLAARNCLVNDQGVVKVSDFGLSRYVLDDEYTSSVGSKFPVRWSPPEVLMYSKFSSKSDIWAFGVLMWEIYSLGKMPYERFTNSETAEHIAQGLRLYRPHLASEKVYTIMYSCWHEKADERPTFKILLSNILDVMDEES

T1 sequence (Q06187 whole entry): as above

Compound	IC50 (BTK enzyme) [nM]	IC50 [1] [nM]
Cc1cc(-c2ccnc(Nc3cnn(C[C@H](N)CO)c3)n2)ccc1CNC(=O)c1cnc(C(C)(C)C)s1 [Example I-131, (S)—N-(4-(2-((1-(2-amino-3-hydroxypropyl)-1H-pyrazol-4-yl)amino)pyrimidin-4-yl)-2-methylbenzyl)-2-(tert-butyl)thiazole-5-carboxamide]	< 10	500 to 1500
Cc1cc(-c2ccnc(Nc3cnn(C4CC4)c3)n2)ccc1CNC(=O)c1cnn(C(C)(C)C)c1 [Example I-260, 1-tert-butyl-N-[[4-[2-[(1-cyclopropylpyrazol-4-yl)amino]pyrimidin-4-yl]-2-methyl-phenyl]methyl]pyrazole-4-carboxamide]	< 10	< 500
COC1CN(C(=O)NC2CCCCc3cc(-c4ccnc(Nc5cnn(C)c5)n4)ccc32)C1 (stereo not shown) [Example I-339, 3-methoxy-N-[2-[2-[(1-methylpyrazol-4-yl)amino]pyrimidin-4-yl]-6,7,8,9-tetrahydro-5H-benzo[7]annulen-5-yl]azetidine-1-carboxamide]	10 to 99	< 500
Cc1cc(-c2ccnc(Nc3cnn([C@H]4CCN(C)C4)c3)n2)ccc1CNC(=O)c1cnc(C(C)(C)C)s1 [Example I-125, (S)-2-(tert-butyl)-N-(2-methyl-4-(2-((1-(1-methylpyrrolidin-3-yl)-1H-pyrazol-4-yl)amino)pyrimidin-4-yl)benzyl)thiazole-5-carboxamide]	< 10	< 500
Cc1cc(-c2cc(Nc3ccc(N4CCN(C)CC4)cn3)ncn2)ccc1CNC(=O)c1cnc(C(C)(C)C)s1 [Example I-69, 2-(tert-butyl)-N-(2-methyl-4-(6-((5-(4-methylpiperazin-1-yl)pyridin-2-yl)amino)pyrimidin-4-yl)benzyl)thiazole-5-carboxamide]	< 10	< 500
CC(C)OC1CN(C(=O)NCc2ccc(-c3ccnc(Nc4cnn([C@@H]5CCOC5)c4)n3)cc2C(F)(F)F)C1 [Example I-314, 3-isopropoxy-N-[[4-[2-[[1-[(3R)-tetrahydrofuran-3-yl]pyrazol-4-yl]amino]pyrimidin-4-yl]-2-(trifluoromethyl)phenyl]methyl]azetidine-1-carboxamide]	< 10	< 500
CC(C)OC1CN(C(=O)NC2CCN(C=O)Cc3cc(-c4ccnc(Nc5cnn(C)c5)n4)ccc32)C1 (stereo not shown) [Example I-329, N-[2-formyl-8-[2-[(1-methylpyrazol-4-yl)amino]pyrimidin-4-yl]-1,3,4,5-tetrahydro-2-benzazepin-5-yl]-3-isopropoxy-azetidine-1-carboxamide]	< 10	< 500
CC(C)OC1CN(C(=O)NC2CCN(C3COC3)Cc3cc(-c4ccnc(Nc5cnn(C)c5)n4)ccc32)C1 (stereo not shown) [Example I-188, 3-isopropoxy-N-(8-(2-((1-methyl-1H-pyrazol-4-yl)amino)pyrimidin-4-yl)-2-(oxetan-3-yl)-2,3,4,5-tetrahydro-1H-benzo[c]azepin-5-yl)azetidine-1-carboxamide]	< 10	500 to 1500
Cc1cc(-c2ccnc(Nc3cn[nH]c3)n2)ccc1CNC(=O)N1CC(OC(C)C)C1 [Example I-222, N-(4-(2-((1H-pyrazol-4-yl)amino)pyrimidin-4-yl)-2-methylbenzyl)-3-isopropoxyazetidine-1-carboxamide]	< 10	500 to 1500
Cn1cc(Nc2nccc(-c3ccc4c(c3)CCCC[C@H]4NC(=O)N3CC(OC(C)(C)C)C3)n2)cn1 [Example I-164, (R)-3-(tert-butoxy)-N-(2-(2-((1-methyl-1H-pyrazol-4-yl)amino)pyrimidin-4-yl)-6,7,8,9-tetrahydro-5H-benzo[7]annulen-5-yl)azetidine-1-carboxamide]	< 10	< 500
COCCn1cc(Nc2nccc(-c3ccc4c(c3)CCCCC4NC(=O)N3CCC(C(C)(C)C)C3)n2)cn1 (stereo not shown) [Example I-186, 3-(tert-butyl)-N-(2-(2-((1-(2-methoxyethyl)-1H-pyrazol-4-yl)amino)pyrimidin-4-yl)-6,7,8,9-tetrahydro-5H-benzo[7]annulen-5-yl)pyrrolidine-1-carboxamide]	< 10	< 500
